Like-named read-outs stand apart in the source and are kept apart here. One block for each molecule: values may come before it. *1 amine or outer side, *2 acyl side, *3 side chain or, on linkers, in order; H or OH if unused. Where no end group is shown, it is not given here. Side-chain parts run from the residue outwards. [ ]: non-standard residue; d: D form. The star is where a group is joined. C18 diacid = O=C(O)CCCCCCCCCCCCCCCCC(=O)*; γGlu = O=C(O)[C@H](CCC(=O)[*:2])N[*:1]; εLys = N[C@@H](CCCCN[*:1])C(=O)[*:2]; Aib = CC(C)(N)C(=O)O
Legend:
hGLP1R = target: T1, hGLP1R (Homo sapiens, UniProt P43220); experiment: hGLP1R CreLuc assay in 0.5% and 100% plasma (HEK-293 CRE-luciferase reporter cells); format: cell-based; conditions: HEK-293 reporter cells
T1 construct: expressed in transfected cells; host or cells: HEK-293 CRE-luciferase reporter cells
T1 sequence (P43220 24-463): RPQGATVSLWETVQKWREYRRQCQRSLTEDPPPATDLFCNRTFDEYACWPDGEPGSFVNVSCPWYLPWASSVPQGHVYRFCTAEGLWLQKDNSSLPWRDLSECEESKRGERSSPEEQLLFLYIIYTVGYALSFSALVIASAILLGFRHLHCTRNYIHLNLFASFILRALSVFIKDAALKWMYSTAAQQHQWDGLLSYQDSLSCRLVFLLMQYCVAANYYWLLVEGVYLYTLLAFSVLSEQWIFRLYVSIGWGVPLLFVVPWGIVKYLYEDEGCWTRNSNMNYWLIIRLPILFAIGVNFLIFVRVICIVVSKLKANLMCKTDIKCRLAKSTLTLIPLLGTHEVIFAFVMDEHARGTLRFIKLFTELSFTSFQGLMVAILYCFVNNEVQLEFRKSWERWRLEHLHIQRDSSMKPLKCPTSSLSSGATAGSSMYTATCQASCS

hGIPR = target: T2, hGIPR (Homo sapiens, UniProt P48546); experiment: hGIPR CreLuc assay in 0.5% and 100% plasma (CHO CRE-luciferase reporter cells); format: cell-based
T2 construct: expressed in transfected cells; host or cells: CHO CRE-luciferase reporter cells
T2 sequence (P48546 22-466): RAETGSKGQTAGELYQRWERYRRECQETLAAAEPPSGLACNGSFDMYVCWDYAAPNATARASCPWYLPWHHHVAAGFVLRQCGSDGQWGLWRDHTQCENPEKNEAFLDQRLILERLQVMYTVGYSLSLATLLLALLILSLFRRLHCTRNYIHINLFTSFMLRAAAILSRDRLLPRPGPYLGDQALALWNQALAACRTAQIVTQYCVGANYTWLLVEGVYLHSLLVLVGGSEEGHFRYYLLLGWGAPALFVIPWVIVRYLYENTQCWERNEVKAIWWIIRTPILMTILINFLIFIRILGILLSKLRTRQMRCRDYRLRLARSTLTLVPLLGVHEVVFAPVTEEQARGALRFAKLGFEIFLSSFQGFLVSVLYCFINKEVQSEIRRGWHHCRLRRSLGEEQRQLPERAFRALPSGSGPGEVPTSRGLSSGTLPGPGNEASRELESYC

hNPY2R = target: T3, hNPY2R (Homo sapiens, UniProt P49146); experiment: hNPY2R CreLuc assay in 0.5% and 100% plasma (HEK-293 CRE-luciferase reporter cells); format: cell-based; conditions: HEK-293 reporter cells
T3 construct: expressed in transfected cells; host or cells: HEK-293 CRE-luciferase reporter cells
T3 sequence (P49146 1-381): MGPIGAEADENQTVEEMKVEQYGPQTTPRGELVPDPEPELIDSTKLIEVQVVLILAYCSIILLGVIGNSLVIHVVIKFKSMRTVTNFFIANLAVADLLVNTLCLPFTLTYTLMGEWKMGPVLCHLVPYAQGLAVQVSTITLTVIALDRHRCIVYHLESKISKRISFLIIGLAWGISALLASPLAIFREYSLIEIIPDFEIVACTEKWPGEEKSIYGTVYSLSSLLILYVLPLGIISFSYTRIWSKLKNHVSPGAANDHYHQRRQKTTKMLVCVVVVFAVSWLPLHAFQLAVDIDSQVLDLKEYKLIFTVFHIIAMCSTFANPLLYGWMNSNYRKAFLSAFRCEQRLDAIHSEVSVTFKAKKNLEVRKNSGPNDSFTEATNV

[1] = Solubility in 0.1 M phosphate buffer at pH 7; format: physicochemical; conditions: 0.1 M phosphate buffer at pH 7, 10 mg/mL final peptide concentration, shaking 2 hours at room temperature, peptides as TFA-salts; measured sample pH 6.5-7.0
[2] = Mouse PK after intravenous application; format: in vivo; conditions: plasma, male NMRI mice, intravenous 30-60 nmol/kg, non-compartmental analysis
In short: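 Male NMRI mice (30–40 g) dosed 30-60 nmol/kg by tail vein in 50 mM phosphate buffer pH 7.4/3.5% mannitol. Saphenous EDTA blood sampled from conscious animals up to 56 h; plasma peptide quantified by LC-MS. Parameters from non-compartmental analysis of individual profiles.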

Normal NMRI Mice = experiment: Effect on acute food intake in normal NMRI mice; format: in vivo; conditions: male NMRI mice, single subcutaneous dose 100 nmol/kg, 24 hours food intake normalized to vehicle group
Experimental: Male NMRI mice were obtained from Janvier (Janvier Labs, France) or from Charles River (Charles River Research Models & Services Germany GmbH) at the age of 3 weeks. The animals get a microchip (Datamars, Slim Microchip T-SL) for individual identification after delivery. They were housed with 4 mice per cage under a 12/12 dark-light cycle, light off at 3 p.m. Room temperature was controlled to 21° C.+/−1° C. and humidity 60%+/−20%. Mice had ad libitum access to regular rodent chow (KLIBA Nafag 3040 or Altromin 1324, Brogaarden, Denmark) and tap water.
Latest transfer into the HM2-System of MBRose, Denmark (real-time monitoring system of food- and water intake) of the animals 5 days before study start, to allow acclimatization to experimental conditions. As the animals were uniquely identified with the microchips, each individual animal was identified by its own microchip upon entry and exit from the food channel via antennae. Randomization of the mice for each study group (n=8; age earliest 6 weeks old) was based on food intake (middle of last three days 24 h-interval) and bodyweight directly before start of the study. A vehicle treated (50 mM phosphate buffer pH 7.4 with 3.5% mannitol) group was included in each experiment. To have the same nutrition standard for each animal the food access was locked eight hours before dark phase. One hour before night, the animals were once treated subcutaneously with the test peptide. Food intake was reported hourly for a period of 24 hours.

human GLP-1 receptor = human GLP-1 receptor (human, UniProt P43220 24-463); experiment: cell-based or functional assay
[3] = 100% human plasma, read-out: hGLP1R 100% hP
[4] = 0.5% human plasma, read-out: hNPY2R 0.5% hP
[5] = 0.5% human plasma, read-out: hGIPR 0.5% hP

Molecule: CC[C@H](C)[C@H](NC(=O)[C@H](Cc1ccccc1)NC(=O)[C@H](C)NC(=O)C(C)(C)NC(=O)[C@H](CCC(N)=O)NC(=O)[C@H](C)NC(=O)[C@H](CCC(N)=O)NC(=O)[C@H](CCCCN)NC(=O)[C@H](CCC(=O)O)NC(=O)[C@H](CC(C)C)NC(=O)[C@](C)(CC(C)C)NC(=O)[C@@H](NC(=O)[C@H](CO)NC(=O)[C@H](Cc1ccc(O)cc1)NC(=O)[C@H](CC(=O)O)NC(=O)[C@H](CO)NC(=O)[C@@H](NC(=O)[C@H](Cc1ccccc1)NC(=O)[C@@H](NC(=O)CNC(=O)[C@H](CCC(=O)O)NC(=O)C(C)(C)NC(=O)[C@@H](N)Cc1ccc(O)cc1)[C@@H](C)O)[C@@H](C)O)[C@@H](C)CC)C(=O)N[C@@H](CCCNC(=N)N)C(=O)N[C@@H](Cc1c[nH]cn1)C(=O)N[C@@H](CC(C)C)C(=O)N[C@H](C(=O)N[C@@H](CC(N)=O)C(=O)N[C@@H](CCCCNC(=O)[C@@H](N)CCCCNC(=O)CC[C@H](NC(=O)CC[C@H](NC(=O)CC[C@H](NC(=O)CC[C@H](NC(=O)CC[C@H](NC(=O)CC[C@H](NC(=O)CCCCCCCCCCCCCCCCC(=O)O)C(=O)O)C(=O)O)C(=O)O)C(=O)O)C(=O)O)C(=O)O)C(=O)NC(C)(C)C(=O)N[C@H](C(=O)N[C@@H](CCCNC(=N)N)C(=O)N[C@@H](CCC(N)=O)C(=O)N[C@@H](CCCNC(=N)N)C(=O)N[C@@H](Cc1ccc(O)cc1)C(N)=O)[C@@H](C)O)[C@@H](C)CC [Compound 76, Y-Aib-E-G-T-F-T-S-D-Y-S-I-aMeL-L-E-K-Q-A-Q-Aib-A-F-I-R-H-L-I-N-K(1,3)-Aib-T-R-Q-R-Y-NH2.C18DA-gGlu-gGlu-gGlu-gGlu-gGlu-gGlu-eLys(1,2)]
EC50 (hGLP1R; [3]): 0.3 nM
EC50 (hGIPR; 100% human plasma, read-out: hGIPR 100% hP): 0.5 nM
EC50 (hNPY2R; [4]): 7.2 nM
solubility at 2 h [1]: 8900 µg/mL
MRT [2]: 6.7 h
Acute Food Intake 24 hours 100 nmol/kg [% CTL] (Normal NMRI Mice): 55 % CTL

Molecule: CC[C@H](C)[C@H](NC(=O)[C@H](CC(C)C)NC(=O)[C@H](Cc1c[nH]cn1)NC(=O)[C@H](CCCNC(=N)N)NC(=O)[C@@H](NC(=O)[C@H](Cc1ccccc1)NC(=O)[C@H](C)NC(=O)C(C)(C)NC(=O)[C@H](CCC(N)=O)NC(=O)[C@H](C)NC(=O)[C@H](CCC(N)=O)NC(=O)[C@H](CCCCN)NC(=O)[C@H](CCC(=O)O)NC(=O)[C@H](CC(C)C)NC(=O)C(C)(C)NC(=O)[C@@H](NC(=O)[C@H](CO)NC(=O)[C@H](Cc1ccc(O)cc1)NC(=O)[C@H](CC(=O)O)NC(=O)[C@H](CO)NC(=O)[C@@H](NC(=O)[C@H](Cc1ccccc1)NC(=O)[C@@H](NC(=O)CNC(=O)[C@H](CCC(=O)O)NC(=O)C(C)(C)NC(=O)[C@@H](N)Cc1ccc(O)cc1)[C@@H](C)O)[C@@H](C)O)[C@@H](C)CC)C(C)C)C(=O)N[C@@H](CC(N)=O)C(=O)N[C@@H](CCCCNC(=O)[C@@H](N)CCCCNC(=O)CC[C@H](NC(=O)CC[C@H](NC(=O)CC[C@H](NC(=O)CC[C@H](NC(=O)CC[C@H](NC(=O)CC[C@H](NC(=O)CCCCCCCCCCCCCCCCC(=O)O)C(=O)O)C(=O)O)C(=O)O)C(=O)O)C(=O)O)C(=O)O)C(=O)NC(C)(C)C(=O)N[C@H](C(=O)N[C@@H](CCCNC(=N)N)C(=O)N[C@@H](CCC(N)=O)C(=O)N[C@@H](CCCNC(=N)N)C(=O)N[C@@H](Cc1ccc(O)cc1)C(N)=O)[C@@H](C)O [Compound 92, Y-Aib-E-G-T-F-T-S-D-Y-S-I-Aib-L-E-K-Q-A-Q-Aib-A-F-V-R-H-L-I-N-K(1,3)-Aib-T-R-Q-R-Y-NH2.C18DA-gGlu-gGlu-gGlu-gGlu-gGlu-gGlu-eLys(1,2)]
EC50 (hGLP1R; 0.5% human plasma, read-out: hGLP1R 0.5% hP): 0.4 nM
EC50 (hGLP1R; [3]): 2 nM
EC50 (hGIPR; [5]): 0.2 nM
EC50 (hNPY2R; [4]): 9.9 nM
solubility at 2 h [1]: 6700 µg/mL
MRT [2]: 7.5 h
Acute Food Intake 24 hours 100 nmol/kg [% CTL] (Normal NMRI Mice): 58 % CTL

Now from value to molecule, other results behind:

EC50 (hGIPR; [5]): 0.4 nM
EC50 (hNPY2R; 100% human plasma, read-out: hNPY2R 100% hP): 60.8 nM
solubility at 2 h [1]: 6700 µg/mL
MRT [2]: 21.2 h
Molecule: CC[C@H](C)[C@H](NC(=O)[C@H](CC(C)C)NC(=O)[C@H](Cc1c[nH]cn1)NC(=O)[C@H](CCCNC(=N)N)NC(=O)[C@@H](NC(=O)[C@H](Cc1ccccc1)NC(=O)[C@H](C)NC(=O)C(C)(C)NC(=O)[C@H](CCC(N)=O)NC(=O)[C@H](C)NC(=O)[C@H](CCC(N)=O)NC(=O)[C@H](CCCCN)NC(=O)[C@H](CCC(=O)O)NC(=O)[C@H](CC(C)C)NC(=O)C(C)(C)NC(=O)[C@@H](NC(=O)[C@H](CO)NC(=O)[C@H](Cc1ccc(O)cc1)NC(=O)[C@H](CC(=O)O)NC(=O)[C@H](CO)NC(=O)[C@@H](NC(=O)[C@H](Cc1ccccc1)NC(=O)[C@@H](NC(=O)CNC(=O)[C@H](CCC(=O)O)NC(=O)C(C)(C)NC(=O)[C@@H](N)Cc1ccc(O)cc1)[C@@H](C)O)[C@@H](C)O)[C@@H](C)CC)C(C)C)C(=O)N[C@@H](CC(N)=O)C(=O)N[C@@H](CCCCNC(=O)[C@@H](N)CCCCNC(=O)CC[C@H](NC(=O)CC[C@H](NC(=O)CC[C@H](NC(=O)CC[C@H](NC(=O)CC[C@H](NC(=O)CC[C@H](NC(=O)CCCCCCCCCCCCCCCCCCC(=O)O)C(=O)O)C(=O)O)C(=O)O)C(=O)O)C(=O)O)C(=O)O)C(=O)NC(C)(C)C(=O)N[C@H](C(=O)N[C@@H](CCCNC(=N)N)C(=O)N[C@@H](CCC(N)=O)C(=O)N[C@@H](CCCNC(=N)N)C(=O)N[C@@H](Cc1ccc(O)cc1)C(N)=O)[C@@H](C)O [Compound 125, Y-Aib-E-G-T-F-T-S-D-Y-S-I-Aib-L-E-K-Q-A-Q-Aib-A-F-V-R-H-L-I-N-K(1,3)-Aib-T-R-Q-R-Y-NH2.C20DA-gGlu-gGlu-gGlu-gGlu-gGlu-gGlu-eLys(1,2)]
Acute Food Intake 24 hours 100 nmol/kg [% CTL] (Normal NMRI Mice): 55 % CTL

EC50, CreLuc luciferase reporter assay, hGLP1R 0.5% hP (human GLP-1 receptor): 1 nM
B1: Compound 174 (peptide)
peptide: Y[Aib]EGTFTSDYSI[Aib]LEKQAQ[Aib]AFVRHLINK([γGlu-εLys-γGlu-γGlu-γGlu-γGlu-γGlu-C18 diacid])[Aib]TRQRY-NH2
modifications: also: TFA salt
